According to US20190202719A1, “METHOD FOR CONTROLLING MOLLUSK POPULATIONS” (priority 2016, published 2019):
Like-named read-outs stand apart in the source and are kept apart here.

Assays:
[1] = tested on: veligers of quagga mussels; test: Efficiency in killing mollusk veligers, beaker exposure; details: approximately 20° C.
Method: Further testing was conducted specifically on veligers of quagga mussels collected from Lake Mead and utilizing citric acid and L-lactic acid. Trials were conducted using 2 replicate beakers per test interval at approximately 20° C. Test beakers (100 mL) were seeded with at least 200 veligers per replicate in 10 mL of veliger concentrate and filtered lake water and then dosed with 90 mL of prepared acid concentrate for each of the tested concentrations of lactic acid or citric acid. Stock acid solutions were measured by weight and added to filtered lake water to make the total volume needed. Controls were run concurrently with treatments and used filtered lake water instead of acid to add into the beaker. Exposure times included 1, 5, and 15 minutes, and 1 and 24 hours to assess mortality for the different concentrations of acids.
The exposure times were 5 minutes, 15 minutes, one hour, and 24 hours.
In the second test, the final concentrations of citric acid and L-lactic acid were 1% and 2% by weight for each acid. The exposure times were one minute and 5 minutes.

adult dreissenid mussels [2] = details: pH about 4, warm water, after 72 hours
adult dreissenid mussels [3] = test: Effective pH range determination, adult mussel mortality in pH-adjusted raw lake water
Method: To find an optimal pH range at which lactic acid effectively killed adult dreissenid mussels, raw lake water was placed in 4 L water containers and aerated. The pH was adjusted in three containers to about 2.8, 4, and 6, respectively, using lactic acid. The initial water parameters (temperature 20° C., pH 7.6, dissolved oxygen (DO) 7.73, Alkalinity 90 mg/l) were monitored. A fourth container, with no pH adjustment was used for control. Twenty adult mussels of various sizes were placed in each of the three containers. […] Mortality was defined as a gaping shell with the adult mussel not responding to gentle prodding of the flesh.
The experiment was repeated with the pH adjusted to about 5.

Row | SMILES | veliger mortality ([1]; 0.6% by weight, one hour exposure) [%] | veliger mortality ([1]; 2% by weight, five minute exposure) [%] | mortality (adult dreissenid mussels [2]) | mortality (adult dreissenid mussels [3]; in vivo, pH 4) [%] | shell condition (adult dreissenid mussels [3]; pH 2.8, after 48 hours) | mortality (adult dreissenid mussels [3]; pH of 6, after 48 hours)
1 | C[C@H](O)C(=O)O [L-lactic acid] | 99 | 86 | – | – | – | –
2 | CC(O)C(=O)O (stereo not drawn) [lactic acid] | – | – | complete mortality | 100 | shells were disintegrating | no mortality
